Test results taken from patent publication US20250154173A1 (Merck Sharp & Dohme LLC, priority 2023, published 2025).

Target: T1, GST-RIPK1 (recombinant GST-RIPK1 kinase domain (residues 1-327)) (Homo sapiens, UniProt Q13546)
T1 construct: recombinant GST-RIPK1 kinase domain (residues 1-327) enzyme produced from baculovirus-transfected Sf21 cells; host or cells: baculovirus-transfected Sf21 insect cells
T1 sequence (Q13546 1-327): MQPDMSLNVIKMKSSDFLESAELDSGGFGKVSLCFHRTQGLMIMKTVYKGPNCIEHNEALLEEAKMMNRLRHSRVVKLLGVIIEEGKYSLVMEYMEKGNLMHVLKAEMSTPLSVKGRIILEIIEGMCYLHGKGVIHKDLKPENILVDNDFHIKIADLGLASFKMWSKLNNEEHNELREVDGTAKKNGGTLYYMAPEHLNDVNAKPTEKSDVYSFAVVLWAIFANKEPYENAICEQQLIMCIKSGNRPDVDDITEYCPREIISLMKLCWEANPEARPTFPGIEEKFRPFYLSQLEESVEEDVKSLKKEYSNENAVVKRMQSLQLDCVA
Test: RIPK1-ADP-Glo Enzymatic Assay
Format: biochemical
Details: ten-point titration, top compound concentration of 100000 nM; 25 nM GST-RIPK1, 300 μM ATP, 3 μM dephosphorylated-MBP; 30 min pre-incubation, 150 min reaction
Summary of the method: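 ADP-Glo luminescence quantifies ADP formed over 150 minutes by 25 nM Sf21-produced GST-RIPK1 (1-327) using 300 μM ATP and 3 μM dephosphorylated MBP, following 30-minute compound preincubation at 1% DMSO. Ten-point 1:3 series from 100000 nM gave EC50 via four-parameter sigmoidal regression.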

Compound | EC50 [nM]
O=C1N2[C@@H](CC[C@H]2c2ccccc2)OC12CC(Oc1ccnc(Cl)c1)C2 (stereo partly drawn) [Example 8.11, (5′S,7a′R)-3-[(2-chloropyridin-4-yl)oxy]-5′-phenyltetrahydro-3′H-spiro[cyclobutane-1,2′-pyrrolo[2,1-b][1,3]oxazol]-3′-onee] | 32
O=C1N2[C@@H](CC[C@H]2c2ccccc2)OC12CC(Oc1cccc3sncc13)C2 (stereo partly drawn) [Example 8.12, (5′S,7a′R)-3-[(1,2-benzothiazol-4-yl)oxy]-5′-phenyltetrahydro-3′H-spiro[cyclobutane-1,2′-pyrrolo[2,1-b][1,3]oxazol]-3′-one] | 20
Cc1cc(OC2CC3(C2)O[C@@H]2CC[C@@H](c4ccccc4)N2C3=O)ccc1F (stereo partly drawn) [Example 8.13, (5′S,7a′R)-3-(4-fluoro-3-methylphenoxy)-5′-phenyltetrahydro-3′H-spiro[cyclobutane-1,2′-pyrrolo[2,1-b][1,3]oxazol]-3′-one] | 62
O=C1N2[C@@H](CC[C@H]2c2ccccc2)OC12CC(Oc1ccc3sncc3c1)C2 (stereo partly drawn) [Example 8.14, (5′S,7a′R)-3-[(1,2-benzothiazol-5-yl)oxy]-5′-phenyltetrahydro-3′H-spiro[cyclobutane-1,2′-pyrrolo[2,1-b][1,3]oxazol]-3′-one] | 83
O=C1N2[C@@H](CC[C@H]2c2ccccc2)OC12CC(Oc1cccc(C(F)(F)F)c1)C2 (stereo partly drawn) [Example 8.15, (5′S,7a′R)-5′-phenyl-3-[3-(trifluoromethyl)phenoxy]tetrahydro-3′H-spiro[cyclobutane-1,2′-pyrrolo[2,1-b][1,3]oxazol]-3′-one] | 37
O=C1N2[C@@H](CC[C@H]2c2ccccc2)OC12CC(Oc1cccc(-c3nnco3)c1)C2 (stereo partly drawn) [Example 8.16, (5′S,7a′R)-3-[3-(1,3,4-oxadiazol-2-yl)phenoxy]-5′-phenyltetrahydro-3′H-spiro[cyclobutane-1,2′-pyrrolo[2,1-b][1,3]oxazol]-3′-one] | 58
O=C1N2[C@@H](CC[C@H]2c2ccccc2)OC12CC(Oc1cncc(Cl)c1)C2 (stereo partly drawn) [Example 8.17] | 35
COc1cc(OC2CC3(C2)O[C@@H]2CC[C@@H](c4ccccc4)N2C3=O)ccc1F (stereo partly drawn) [Example 8.18, (5′S,7a′R)-3-(4-fluoro-3-methoxyphenoxy)-5′-phenyltetrahydro-3′H-spiro[cyclobutane-1,2′-pyrrolo[2,1-b][1,3]oxazol]-3′-one] | 21
O=C1N2[C@@H](CC[C@H]2c2ccccc2)OC12CC(Oc1cccc3cnoc13)C2 (stereo partly drawn) [Example 8.19] | 254
O=C1N2[C@@H](CC[C@H]2c2ccccc2)OC12CC(Oc1nccc3nccn13)C2 (stereo partly drawn) [Example 8.20, (5′S,7a′R)-3-[(imidazo[1,2-c]pyrimidin-5-yl)oxy]-5′-phenyltetrahydro-3′H-spiro[cyclobutane-1,2′-pyrrolo[2,1-b][1,3]oxazol]-3′-one] | 20
O=C1N2[C@@H](CC[C@H]2c2ccccc2)OC12CC(Oc1ccnn3cccc13)C2 (stereo partly drawn) [Example 8.21, (5′S,7a′R)-5′-phenyl-3-[(pyrrolo[1,2-b]pyridazin-4-yl)oxy]tetrahydro-3′H-spiro[cyclobutane-1,2′-pyrrolo[2,1-b][1,3]oxazol]-3′-one] | 39
O=C1N2[C@@H](CC[C@H]2c2ccc(F)cc2)O[C@]12C[C@H](Oc1ccnn3cccc13)C2 [Example 8.22, (1r,3R,5′S,7a′R)-5′-(4-fluorophenyl)-3-(pyrrolo[1,2-b]pyridazin-4-yloxy)tetrahydro-3′H-spiro[cyclobutane-1,2′-pyrrolo[2,1-b]oxazol]-3′-one] | 29
O=C1N2[C@@H](CC[C@H]2c2ccccc2)OC12CC(Oc1nncc3cccn13)C2 (stereo partly drawn) [Example 8.23, (5′S,7a′R)-5′-phenyl-3-[(pyrrolo[1,2-d][1,2,4]triazin-4-yl)oxy]tetrahydro-3′H-spiro[cyclobutane-1,2′-pyrrolo[2,1-b][1,3]oxazol]-3′-one] | 29
N#Cc1cc(O[C@H]2C[C@@]3(C2)O[C@@H]2CC[C@@H](c4ccc(F)cc4)N2C3=O)ncn1 [Example 9.1, 6-(((1r,3R,5′S,7a′R)-5′-(4-fluorophenyl)-3′-oxotetrahydro-3′H-spiro[cyclobutane-1,2′-pyrrolo[2,1-b]oxazol]-3-yl)oxy)pyrimidine-4-carbonitrile] | 14
N#Cc1cc(O[C@H]2C[C@@]3(C2)O[C@@H]2CC[C@@H](c4cc(F)cc(F)c4)N2C3=O)ncn1 [Example 9.2, 6-(((5′S,7a′R)-5′-(3,5-difluorophenyl)-3′-oxotetrahydro-3′H-spiro[cyclobutane-1,2′-pyrrolo[2,1-b]oxazol]-3-yl)oxy)pyrimidine-4-carbonitrile] | 16
O=C1N2[C@@H](CC[C@H]2c2cc(F)cc(F)c2)O[C@]12C[C@H](Oc1cc(Cl)ncn1)C2 [Example 9.3, (5′S,7a′R)-3-((6-chloropyrimidin-4-yl)oxy)-5′-(3,5-difluorophenyl)tetrahydro-3′H-spiro[cyclobutane-1,2′-pyrrolo[2,1-b]oxazol]-3′-one] | 10
O=C1N2[C@@H](CC[C@H]2c2cc(F)cc(F)c2)O[C@]12C[C@H](Oc1cc(-n3cccn3)ncn1)C2 [Example 9.6, (5′S,7a′R)-5′-(3,5-difluorophenyl)-3-{[6-(1H-pyrazol-1-yl)pyrimidin-4-yl]oxy}tetrahydro-3′H-spiro[cyclobutane-1,2′-pyrrolo[2,1-b][1,3]oxazol]-3′-one] | 12
Cc1nc2c(OC3CC4(C3)O[C@@H]3CC[C@@H](c5cc(F)cc(F)c5)N3C4=O)ncnc2s1 (stereo partly drawn) [Example 9.7, (5′S,7a′R)-5′-(3,5-difluorophenyl)-3-[(2-methyl[1,3]thiazolo[5,4-d]pyrimidin-7-yl)oxy]tetrahydro-3′H-spiro[cyclobutane-1,2′-pyrrolo[2,1-b][1,3]oxazol]-3′-one] | 201
O=C1N2[C@@H](CC[C@H]2c2cc(F)cc(F)c2)OC12CC(Oc1cc(-n3cccn3)ncn1)C2 (stereo partly drawn) [Example 9.8, (5′S,7a′R)-5′-(3,5-difluorophenyl)-3-{[6-(1H-pyrazol-1-yl)pyrimidin-4-yl]oxy}tetrahydro-3′H-spiro[cyclobutane-1,2′-pyrrolo[2,1-b][1,3]oxazol]-3′-one] | 24
O=C1N2[C@@H](CC[C@H]2c2cc(F)cc(F)c2)O[C@]12C[C@@H](Oc1cc(F)ncn1)C2 [Example 9.10, (1s,3S,5′S,7a′R)-5′-(3,5-difluorophenyl)-3-((6-fluoropyrimidin-4-yl)oxy)tetrahydro-3′H-spiro[cyclobutane-1,2′-pyrrolo[2,1-b]oxazol]-3′-one] | 35
Cc1cn(-c2cc(OC3CC4(C3)O[C@@H]3CC[C@@H](c5cc(F)cc(F)c5)N3C4=O)ncn2)cn1 (stereo partly drawn) [Example 9.11, (5′S,7a′R)-5′-(3,5-difluorophenyl)-3-{[6-(4-methyl-1H-imidazol-1-yl)pyrimidin-4-yl]oxy}tetrahydro-3′H-spiro[cyclobutane-1,2′-pyrrolo[2,1-b][1,3]oxazol]-3′-one] | 21
N#Cc1cc(O[C@H]2C[C@]3(C2)O[C@@H]2CC[C@@H](c4cc(F)cc(F)c4)N2C3=O)ncn1 [Example 9.12, 6-(((1s,3S,5′S,7a′R)-5′-(3,5-difluorophenyl)-3′-oxotetrahydro-3′H-spiro[cyclobutane-1,2′-pyrrolo[2,1-b]oxazol]-3-yl)oxy)pyrimidine-4-carbonitrile] | 446
O=C1N2[C@@H](CC[C@H]2c2cc(F)cc(F)c2)O[C@]12C[C@@H](Oc1cc(Cl)ncn1)C2 [Example 9.13, (1s,3S,5′S,7a′R)-3-((6-chloropyrimidin-4-yl)oxy)-5′-(3,5-difluorophenyl)tetrahydro-3′H-spiro[cyclobutane-1,2′-pyrrolo[2,1-b]oxazol]-3′-one] | 108
N#Cc1ncccc1O[C@H]1C[C@@]2(C1)O[C@@H]1CC[C@@H](c3ccccc3)N1C2=O [Example 9.14, 3-{[(1r,3R,5′S,7a′R)-3′-oxo-5′-phenyltetrahydro-3′H-spiro[cyclobutane-1,2′-pyrrolo[2,1-b][1,3]oxazol]-3-yl]oxy}pyridine-2-carbonitrile] | 139
N#Cc1cncc(O[C@H]2C[C@@]3(C2)O[C@@H]2CC[C@@H](c4ccccc4)N2C3=O)n1 [Example 9.16, 6-{[(1r,3R,5′S,7a′R)-3′-oxo-5′-phenyltetrahydro-3′H-spiro[cyclobutane-1,2′-pyrrolo[2,1-b][1,3]oxazol]-3-yl]oxy}pyrazine-2-carbonitrile] | 78
N#Cc1cc(O[C@H]2C[C@@]3(C2)O[C@@H]2CC[C@@H](c4ccccc4)N2C3=O)ncn1 [Example 9.17, 6-{[(1r,3R,5′S,7a′R)-3′-oxo-5′-phenyltetrahydro-3′H-spiro[cyclobutane-1,2′-pyrrolo[2,1-b][1,3]oxazol]-3-yl]oxy}pyrimidine-4-carbonitrile] | 18
N#Cc1ccnc(O[C@H]2C[C@@]3(C2)O[C@@H]2CC[C@@H](c4ccccc4)N2C3=O)n1 [Example 9.19, 2-{[(1r,3R,5′S,7a′R)-3′-oxo-5′-phenyltetrahydro-3′H-spiro[cyclobutane-1,2′-pyrrolo[2,1-b][1,3]oxazol]-3-yl]oxy}pyrimidine-4-carbonitrile] | 64
